In US8952024B2, “Herbicidal pyrimidone derivatives” (E I du Pont de Nemours and Company, priority 2009, dated 2015):

What was measured:
Experiment in all cases: Test B pre-/postemergence plant response
Assay type in all cases: in vivo
Details in all cases: Postemergence
kochia (Kochia scoparia) = test system: kochia (Kochia scoparia)
Outline: (§1)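 Response scores were assigned visually after 13 to 15 days in a greenhouse, comparing treated pots with controls on a 0–100 scale where 100 denotes complete control. Preemergence treatments went onto freshly seeded loam/sand soil; postemergence treatments onto plants 2 to 18 cm tall.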

[1] = test system: giant foxtail (Setaria faberii)
Outline: as §1

[2] = test system: johnsongrass (Sorghum halepense)
Outline: as §1

[3] = test system: large crabgrass (Digitaria sanguinalis)
Outline: as §1

[4] = test system: goosegrass (Eleusine indica)
Outline: as §1

[5] = test system: downy bromegrass (Bromus tectorum)
Outline: as §1

[6] = test system: woolly cupgrass (Eriochloa villosa)
Outline: as §1

[7] = test system: green foxtail (Setaria viridis)
Outline: as §1

[8] = test system: velvetleaf (Abutilon theophrasti)
Outline: as §1

[9] = test system: lambsquarters (Chenopodium album)
Outline: as §1

[10] = test system: yellow nutsedge (Cyperus esculentus)
Outline: as §1

[11] = test system: wheat (Triticum aestivum)
Outline: as §1

[12] = test system: pigweed (Amaranthus retroflexus)
Outline: as §1

[13] = 31 g ai/ha, 0 to 100 scale (0 no effect, 100 complete control)
[14] = 62 g ai/ha, scale 0 to 100 (0 no effect, 100 complete control)
[15] = 125 g ai/ha, scale 0 to 100 (0 no effect, 100 complete control)
[16] = 250 g ai/ha, scale 0 to 100 (0 no effect, 100 complete control), 13 to 15 days

SMILES: COCCn1c(-c2ccsc2)ncc(C(=O)C2=C(O)C3CCC(C3)C2=O)c1=O (centres unmarked) [Compound 228]
- Plant response rating, Kochia (kochia (Kochia scoparia); [13]): 90
- Plant response rating, Kochia (kochia (Kochia scoparia); [14]): 100
- Plant response rating, Kochia (kochia (Kochia scoparia); [15]): 100
- Plant response rating, Kochia (kochia (Kochia scoparia); [16]): 100
- Plant response rating, Foxtail, Giant [1, 13]: 85
- Plant response rating, Foxtail, Giant [1, 14]: 85
- Plant response rating, Foxtail, Giant [1, 15]: 95
- Plant response rating, Foxtail, Giant [1, 16]: 95
- Plant response rating, Johnsongrass [2, 13]: 75
- Plant response rating, Johnsongrass [2, 14]: 75
- Plant response rating, Johnsongrass [2, 15]: 95
- Plant response rating, Johnsongrass [2, 16]: 100
- Plant response rating, Crabgrass, Large [3, 13]: 80
- Plant response rating, Crabgrass, Large [3, 14]: 98
- Plant response rating, Crabgrass, Large [3, 15]: 98
- Plant response rating, Crabgrass, Large [3, 16]: 98
- Plant response rating, Goosegrass [4, 13]: 80
- Plant response rating, Goosegrass [4, 14]: 80
- Plant response rating, Goosegrass [4, 15]: 85
- Plant response rating, Goosegrass [4, 16]: 90
- Plant response rating, Bromegrass, Downy [5, 13]: 5
- Plant response rating, Bromegrass, Downy [5, 14]: 5
- Plant response rating, Bromegrass, Downy [5, 15]: 10
- Plant response rating, Bromegrass, Downy [5, 16]: 10
- Plant response rating, Cupgrass, Woolly [6, 13]: 75
- Plant response rating, Cupgrass, Woolly [6, 14]: 95
- Plant response rating, Cupgrass, Woolly [6, 15]: 95
- Plant response rating, Cupgrass, Woolly [6, 16]: 98
- Plant response rating, Foxtail, Green [7, 13]: 85
- Plant response rating, Foxtail, Green [7, 14]: 90
- Plant response rating, Foxtail, Green [7, 15]: 98
- Plant response rating, Foxtail, Green [7, 16]: 100
- Plant response rating, Velvetleaf [8, 13]: 80
- Plant response rating, Velvetleaf [8, 14]: 100
- Plant response rating, Velvetleaf [8, 16]: 100
- Plant response rating, Lambsquarters [9, 13]: 98
- Plant response rating, Lambsquarters [9, 14]: 98
- Plant response rating, Lambsquarters [9, 15]: 100
- Plant response rating, Lambsquarters [9, 16]: 100
- Plant response rating, Nutsedge, Yellow [10, 13]: 40
- Plant response rating, Nutsedge, Yellow [10, 14]: 45
- Plant response rating, Nutsedge, Yellow [10, 15]: 60
- Plant response rating, Nutsedge, Yellow [10, 16]: 70
- Plant response rating, Wheat [11, 13]: 0
- Plant response rating, Wheat [11, 14]: 5
- Plant response rating, Wheat [11, 16]: 35
- Plant response rating, Pigweed [12, 13]: 98
- Plant response rating, Pigweed [12, 14]: 100
- Plant response rating, Pigweed [12, 16]: 100

SMILES: O=C(C1=C(O)C2CCC(C2)C1=O)c1cnc(-c2ccsc2)n(CC2CCCO2)c1=O (centres unmarked) [Compound 229]
- Plant response rating, Kochia (kochia (Kochia scoparia); [13]): 55
- Plant response rating, Kochia (kochia (Kochia scoparia); [14]): 70
- Plant response rating, Kochia (kochia (Kochia scoparia); [15]): 80
- Plant response rating, Kochia (kochia (Kochia scoparia); [16]): 100
- Plant response rating, Foxtail, Giant [1, 13]: 75
- Plant response rating, Foxtail, Giant [1, 14]: 80
- Plant response rating, Foxtail, Giant [1, 15]: 80
- Plant response rating, Foxtail, Giant [1, 16]: 95
- Plant response rating, Johnsongrass [2, 13]: 70
- Plant response rating, Johnsongrass [2, 14]: 100
- Plant response rating, Johnsongrass [2, 15]: 100
- Plant response rating, Johnsongrass [2, 16]: 100
- Plant response rating, Crabgrass, Large [3, 13]: 80
- Plant response rating, Crabgrass, Large [3, 14]: 90
- Plant response rating, Crabgrass, Large [3, 15]: 90
- Plant response rating, Crabgrass, Large [3, 16]: 90
- Plant response rating, Goosegrass [4, 13]: 70
- Plant response rating, Goosegrass [4, 14]: 70
- Plant response rating, Goosegrass [4, 15]: 70
- Plant response rating, Goosegrass [4, 16]: 80
- Plant response rating, Bromegrass, Downy [5, 13]: 5
- Plant response rating, Bromegrass, Downy [5, 14]: 15
- Plant response rating, Bromegrass, Downy [5, 15]: 20
- Plant response rating, Bromegrass, Downy [5, 16]: 30
- Plant response rating, Cupgrass, Woolly [6, 13]: 70
- Plant response rating, Cupgrass, Woolly [6, 14]: 75
- Plant response rating, Cupgrass, Woolly [6, 15]: 80
- Plant response rating, Cupgrass, Woolly [6, 16]: 90
- Plant response rating, Foxtail, Green [7, 13]: 40
- Plant response rating, Foxtail, Green [7, 14]: 80
- Plant response rating, Foxtail, Green [7, 15]: 80
- Plant response rating, Foxtail, Green [7, 16]: 95
- Plant response rating, Velvetleaf [8, 13]: 75
- Plant response rating, Velvetleaf [8, 14]: 75
- Plant response rating, Velvetleaf [8, 16]: 85
- Plant response rating, Lambsquarters [9, 13]: 85
- Plant response rating, Lambsquarters [9, 14]: 95
- Plant response rating, Lambsquarters [9, 15]: 95
- Plant response rating, Lambsquarters [9, 16]: 98
- Plant response rating, Nutsedge, Yellow [10, 13]: 0
- Plant response rating, Nutsedge, Yellow [10, 14]: 20
- Plant response rating, Nutsedge, Yellow [10, 15]: 40
- Plant response rating, Nutsedge, Yellow [10, 16]: 55
- Plant response rating, Wheat [11, 13]: 0
- Plant response rating, Wheat [11, 14]: 0
- Plant response rating, Wheat [11, 16]: 35
- Plant response rating, Pigweed [12, 13]: 80
- Plant response rating, Pigweed [12, 14]: 95
- Plant response rating, Pigweed [12, 16]: 100
